# Assay results from paper PMC11156954, “Inhibition and transport mechanisms of the ABC transporter hMRP5” (Nature Communications, 2024).
# No end group written: not given here.
# Molecular target: T1, hMRP5-Δ1-94 (Homo sapiens, UniProt O15440)
# T1 construct: The codon-optimized full-length human ABCC5 gene encoding the MRP5 protein (UniProt ID: O15440); 8xHis (C); 2xstrep (C); made in house; host or cells: HEK293F
# Assay: cryo-EM of the reconstituted peptide complex
# Assay type: binding
# Conditions: peptide and hMRP5-Δ1-94 at 2:1 ratio, on ice, 1 h; inward-open complex
# Experimental: To assess if D35C-E75C can structurally block the transport pathway, we incubated it with hMRP5-Δ1-94 at a 2:1 ratio for in vitro reconstitution. The resulting high-resolution structure of the reconstituted complex maintained an inward-open conformation with both NBDs separated (Fig. 4c and Supplementary Fig. 7a–d). […] Given its ability to effectively occlude the binding pocket, we termed the D35C-E75C peptide MRP5 potential peptide inhibitor (M5PI).
# Freshly purified MRP5 protein was concentrated to ~5 mg/ml. Then, 5 μl proteins were added to the freshly glow-discharged (0.39 mBar air, 15 mA, 50 s) holey carbon grid (Quantifoil Au R1.2/1.3, 300 mesh). The grids were plunge-frozen in liquid ethane using an FEI Vitrobot Mark IV (Thermo Fisher Scientific) under the following conditions: waiting time, 11 s; blot time, 4 s; blot force, −2; temperature, 10 °C; and humidity, 100%. Next, the grids were transferred to and stored in liquid nitrogen until data acquisition. For the peptide M5PI-bound complex, the peptide and hMRP5-Δ1-94 were incubated together on ice at a ratio of 2:1 for 1 h before vitrification. […]
# The single-particle analysis procedures for all states are summarized in the supplementary information (Supplementary Figs. 1, 2, 4, 5, 7 and 8). […] The overall resolution of the final map was determined by the 0.143 criterion of the gold-standard Fourier shell correlation. […]
# T1 sequence (O15440 95-1437 limits assumed, stated change not applied): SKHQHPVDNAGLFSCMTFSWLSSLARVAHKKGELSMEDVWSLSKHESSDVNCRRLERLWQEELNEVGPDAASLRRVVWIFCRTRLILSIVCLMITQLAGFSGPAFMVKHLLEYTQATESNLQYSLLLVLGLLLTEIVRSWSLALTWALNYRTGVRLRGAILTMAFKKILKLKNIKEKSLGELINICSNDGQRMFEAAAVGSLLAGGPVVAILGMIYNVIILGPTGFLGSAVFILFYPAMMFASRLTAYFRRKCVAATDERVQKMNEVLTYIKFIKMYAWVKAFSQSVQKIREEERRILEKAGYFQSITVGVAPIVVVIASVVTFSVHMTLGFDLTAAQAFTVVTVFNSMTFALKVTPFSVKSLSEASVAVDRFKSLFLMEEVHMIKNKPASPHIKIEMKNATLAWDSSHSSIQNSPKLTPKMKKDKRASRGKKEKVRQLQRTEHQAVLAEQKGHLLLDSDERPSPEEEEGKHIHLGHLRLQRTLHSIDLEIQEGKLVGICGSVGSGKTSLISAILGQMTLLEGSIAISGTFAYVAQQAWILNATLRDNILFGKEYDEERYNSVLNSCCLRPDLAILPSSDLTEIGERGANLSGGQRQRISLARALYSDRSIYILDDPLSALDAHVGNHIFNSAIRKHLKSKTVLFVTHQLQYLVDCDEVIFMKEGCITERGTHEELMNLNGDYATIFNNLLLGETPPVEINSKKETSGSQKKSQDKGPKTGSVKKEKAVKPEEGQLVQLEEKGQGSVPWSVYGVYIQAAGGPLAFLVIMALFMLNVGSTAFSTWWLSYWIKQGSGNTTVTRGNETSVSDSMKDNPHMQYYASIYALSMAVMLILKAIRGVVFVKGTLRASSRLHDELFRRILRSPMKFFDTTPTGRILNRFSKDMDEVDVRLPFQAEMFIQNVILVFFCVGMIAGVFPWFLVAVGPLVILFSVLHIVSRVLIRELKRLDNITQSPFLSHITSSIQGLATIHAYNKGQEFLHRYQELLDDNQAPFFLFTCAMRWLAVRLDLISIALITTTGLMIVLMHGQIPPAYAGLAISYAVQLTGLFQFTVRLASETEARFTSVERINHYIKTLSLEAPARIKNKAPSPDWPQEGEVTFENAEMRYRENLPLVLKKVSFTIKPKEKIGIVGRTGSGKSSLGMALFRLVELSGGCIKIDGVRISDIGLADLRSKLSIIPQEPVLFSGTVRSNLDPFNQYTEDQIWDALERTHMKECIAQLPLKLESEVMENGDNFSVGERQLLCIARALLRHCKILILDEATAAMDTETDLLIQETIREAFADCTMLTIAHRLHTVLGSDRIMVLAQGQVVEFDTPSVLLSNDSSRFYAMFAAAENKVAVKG
sequence,measurement,value
CSKFRRTRPLECQDALETAARAEGLSLDASMHSQLRILDEC (cysteines drawn unpaired) [M5PI],EM density of bound peptide,clear EM density for the bound D35C-E75C peptide in the central cavity
